In article PMC10916623, “Tissue distribution and pharmacokinetics of isoxanthohumol from hops in rodents” (Food Science & Nutrition, 2023):

Test: Tissue and plasma accumulation after daily gavage administration of IXA to mice for 14 days
Format: in vivo, C57/BL6 mice
Settings: IXA 30 mg/kg BW daily 14 days, 24 h after final administration
Experimental: Animal species, age, sex, initial BW, feeding conditions, and dosage method were the same as those for the single gavage administration test, but the dose was 30 mg/kg BW. […] Daily gavage administration without fasting was performed at 12:00 PM for 14 days. The final BW was 21–26 g. Blood, brain, thymus, heart, lung, liver, spleen, kidney, and gastrocnemius muscle were collected 24 h after the final administration. The sample collection method was the same as that for the single gavage administration test.
Plasma samples were deconjugated by β‐glucuronidase type H‐1 (which has β‐glucuronidase and sulphatase activity; Sigma, St. Louis, MO, USA; G0751) to convert aglycon from conjugated metabolites of IXA and 8‐PN, as described in a previous report (Y. Tanaka et al., [2022]). Briefly, 100 μL of plasma was mixed with 900 μL of 0.1 mol/L sodium acetate buffer (pH 4.7), 200 μL of 50 mmol/L ascorbic acid, and 1 mL of 1.67 μkat/100 μL of β‐glucuronidase type H‐1, and then incubated for 30 min at 37°C. Then, 2.4 nmol of QTM was added to the samples as the internal standard. The liberated aglycone was extracted using ethyl acetate (Kanto Kagaku, 14,029‐2B).
Tissue sample deconjugation was performed as described in a previous report with slight modifications (Tanaka et al., [2022]). Tissues were homogenized in phosphate‐buffered saline (pH 7.4), which was nine times the tissue volume. The tissue homogenate was incubated in 50 mmol/L ascorbic acid (one‐fifth the volume of phosphate‐buffered saline) and 1.67 μkat/100 μL of β‐glucuronidase type H‐1 in 0.1 mol/L sodium acetate buffer (pH 4.7, nine times the volume of the sample) for 2 h at 37°C. Then, 2.4 nmol of QTM was added to samples as an internal standard. The supernatant was isolated by centrifugation at 17 × 10^3 m/s^2 (Kubota) for 5 min at 4°C. Then, methanol (Kanto Kagaku, 25183‐2B) was added to the pellets, and they were shaken for 1 min. The methanol layer and pellets were separated by centrifugation at 17 × 10^3 m/s^2 (Kubota, RY1071‐A000) for 5 min at 4°C. Methanol extraction was repeated three times. Finally, methanol extracts were mixed with the supernatant (the composition of the mixture was 30% methanol) and then applied to an Inert Sep C8 (200 mg/3 mL; GL Sciences, Tokyo, Japan; 5010‐61082) cartridge. The cartridge was preconditioned with 6 mL of 2% acetic acid in methanol, and then 9 mL of 2% acetic acid in water. The extracted tissue was passed through the cartridge, and it was washed with 5 mL of 2% acetic acid in 30% methanol aq. The flavonoids were eluted with 10 mL of 2% acetic acid in methanol.
The plasma and tissue extracts were evaporated using a Centrifugal Evaporator (EYERA, Tokyo, Japan, CVE‐3000). The samples were stored at −80°C until the next day. Then, the samples were dissolved in 120 μL of a mobile phase solution and divided into two test tubes. The first sample was injected into the HPLC with an ultraviolet detection system (Shimadzu, Kyoto, Japan).
IXA and 8‐PN concentrations were determined by their respective standard curves using an internal standard method. A Cadenza 3‐μm CD‐C18 HPLC column (CD005, 150 × 4.6 mm; Imtakt Corporation, Kyoto, Japan) was equipped for HPLC (λ = 295 nm). The mobile phase consisted of methanol:water:acetic acid (60:35:5, v/v/v). The flow rate was set at 1.0 mL/min. […] Because clear peaks over 4.5 pmol/sample were detected for IXA and 8‐PN by visual evaluation, we determined that these concentrations were the peak limit of detections for each flavonoid. We applied calibration curves in the IXA/QTM concentration ratio range of 0.007–35.1 (R ^2 = .9955).

IXA accumulation, 14-day repeated-ingestion test (brain): 0.2 ± 0.1 nmol/g of tissue
IXA accumulation, 14-day repeated-ingestion test (heart): not detected
IXA accumulation, 14-day repeated-ingestion test (kidney): 5.8 ± 1.0 nmol/g of tissue
IXA accumulation, 14-day repeated-ingestion test (liver): 8.6 ± 2.9 nmol/g of tissue
IXA accumulation, 14-day repeated-ingestion test (lung): 3.2 ± 2.8 nmol/g of tissue
IXA accumulation, 14-day repeated-ingestion test (plasma): not detected
IXA accumulation, 14-day repeated-ingestion test (spleen): 3.4 ± 2.0 nmol/g of tissue
IXA accumulation, 14-day repeated-ingestion test (thymus): 4.3 ± 3.8 nmol/g of tissue
Substance: 4,7‐dihydroxy‐5‐methoxy‐8‐prenylflavanone [IXA]
